US20240197666A1, “DITERPENOID COMPOUNDS THAT ACT ON PROTEIN KINASE C (PKC)” (K-Gen Therapeutics, Inc., priority 2021, published 2024)

Experiments:
human PBMC cells = assay: Cytokine/chemokine gene expression in human PBMC (TaqMan); type: cell-based; settings: 4 h;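 on Gene Relative Expression CCL2: 2^-ΔΔCt fold change vs DMSO control normalized to 18S and GAPDH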;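 on Gene Relative Expression GM-CSF: 2^-ΔΔCt fold change vs DMSO control normalized to 18S and GAPDH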;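 on Gene Relative Expression IFN-α: 2^-ΔΔCt fold change vs DMSO control normalized to 18S and GAPDH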;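 on Gene Relative Expression IFNγ: 2^-ΔΔCt fold change vs DMSO control normalized to 18S and GAPDH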
Description: Each treatment condition was performed in duplicates.

KP-4 (Pancreatic) = assay: Proliferation of KP-4; type: cell-based; settings: read-out: IC50 KP-4 (Pancreatic)
Method in brief: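 Proliferation was measured in the K-Ras mutant pancreatic lines and in HL-60 and Namalwa cells. These were plated at densities set per line and left 24 h before compound was added. After 96 h with serially diluted compound, viability was read by CellTiter Glo and IC50 derived.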

Hela cells = assay: In vitro scratch wound healing assay; type: cell-based; settings: 24h
Description: Scratch wound healing assay creates a gap by scratching a confluent monolayer of cells to mimic a wound and then measures the ability of cells to fill up the gap (wound) in the presence of DMSO or test compounds. 1.2-1.5×10^5 Hela cells in 1 mL media RPMI-1640 with 10% FBS were seeded in 24-well plates. Cells were starved for overnight in the same media without FBS when cells became confluent. After starvation, a scratch was made in the middle of the well and the plates were washed three times to remove detached cells. DMSO or different concentrations of compounds were diluted and added to the cells. The assay plates were put into Incucyte S3 and scanned with 4× scanner setting regularly. The imaging results were exported and the wound area was analyzed by ImageJ. Wound healing or closure was calculated by the following formula: wound healing %=(wound area at 0h−wound area at 24h)/wound area 0h*100%. Relative wound healing was calculated by dividing wound healing % of compound treatment to that of DMSO*100%.

Mino (Lymphoma) = assay: Proliferation of Mino; type: cell-based
Method in brief: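 Luminescent ATP read-out (CellTiter Glo) after 96 h compound exposure gave % inhibition relative to DMSO-treated cells, from which IC50 was fitted. Seeding densities were line-specific, from 800 to 10000 cells/well. Potency across batches was normalised to reference compound K101.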

[1] = tested on: NFκB-driven transcription in HeLa-NFκB luciferase reporter cell line; assay: NFκB luciferase reporter assay; settings: Homo sapiens, HeLa, 16 h, read-out: NFκB-luc HeLa cells EC50 (μM)

**Q.** How did the “Gene Relative Expression CCL2” value (human PBMC cells; 0.01 μM) turn out when `CC1=C[C@H]2[C@@]3(O)[C@H](C)C[C@]4(OC(=O)[C@@H](N)[C@]56C[C@H]7C[C@H](C[C@H](C7)C5)C6)[C@H]([C@@H]3C=C(CO)C[C@]2(O)C1=O)C4(C)C` was run?
**A.** 5.58

**Q.** What about the “Gene Relative Expression GM-CSF” value (human PBMC cells; 0.01 μM) of the same molecule?
**A.** 1.59

**Q.** And the “Gene Relative Expression IFN-α” value (human PBMC cells; 0.01 μM)?
**A.** 0.78

**Q.** What about the “Gene Relative Expression IFNγ” value (human PBMC cells; 0.01 μM) of the same molecule?
**A.** 1.69

**Q.** What about the “Gene Relative Expression IL-1β” value (human PBMC cells; 0.01 μM) of the same molecule?
**A.** 0.59

**Q.** And the “Gene Relative Expression IL-2” value (human PBMC cells; 0.01 μM)?
**A.** 3.06

**Q.** And the “Gene Relative Expression IL-4” value (human PBMC cells; 0.01 μM)?
**A.** 0.84

**Q.** What about the “Gene Relative Expression IL-6” value (human PBMC cells; 0.01 μM) of the same molecule?
**A.** 1.17

**Q.** And the “Gene Relative Expression IL-8” value (human PBMC cells; 0.01 μM)?
**A.** 0.71

**Q.** And the “Gene Relative Expression IL-10” value (human PBMC cells; 0.01 μM)?
**A.** 1.12

**Q.** What about the “Gene Relative Expression IL-12p40” value (human PBMC cells; 0.01 μM) of the same molecule?
**A.** 0.89

**Q.** What about the “Gene Relative Expression IL-12p70” value (human PBMC cells; 0.01 μM) of the same molecule?
**A.** 1.03

**Q.** And the “Gene Relative Expression IL-13” value (human PBMC cells; 0.01 μM)?
**A.** 3.10

**Q.** What about the “Gene Relative Expression IL-18” value (human PBMC cells; 0.01 μM) of the same molecule?
**A.** 0.26

**Q.** What about the “Gene Relative Expression ISG15” value (human PBMC cells; 0.01 μM) of the same molecule?
**A.** 1.01

**Q.** What about the “Gene Relative Expression MIP1a (CCL3)” value (human PBMC cells; 0.01 μM) of the same molecule?
**A.** 1.65

**Q.** What about the “Gene Relative Expression MX1” value (human PBMC cells; 0.01 μM) of the same molecule?
**A.** 0.84

**Q.** What about the “Gene Relative Expression OAS1” value (human PBMC cells; 0.01 μM) of the same molecule?
**A.** 0.74

**Q.** What about the “Gene Relative Expression TNF-α” value (human PBMC cells; 0.01 μM) of the same molecule?
**A.** 2.39

**Q.** And the “Gene Relative Expression CCL2” value (human PBMC cells; 0.03 μM)?
**A.** 3.59

**Q.** And the “Gene Relative Expression GM-CSF” value (human PBMC cells; 0.03 μM)?
**A.** 8.38

**Q.** And the “Gene Relative Expression IFN-α” value (human PBMC cells; 0.03 μM)?
**A.** 0.46

**Q.** And the “Gene Relative Expression IFNγ” value (human PBMC cells; 0.03 μM)?
**A.** 3.82

**Q.** What about the “Gene Relative Expression IL-1β” value (human PBMC cells; 0.03 μM) of the same molecule?
**A.** 2.26

**Q.** And the “Gene Relative Expression IL-2” value (human PBMC cells; 0.03 μM)?
**A.** 7.78

**Q.** What about the “Gene Relative Expression IL-4” value (human PBMC cells; 0.03 μM) of the same molecule?
**A.** 2.54

**Q.** And the “Gene Relative Expression IL-6” value (human PBMC cells; 0.03 μM)?
**A.** 0.86

**Q.** And the “Gene Relative Expression IL-8” value (human PBMC cells; 0.03 μM)?
**A.** 0.54

**Q.** And the “Gene Relative Expression IL-10” value (human PBMC cells; 0.03 μM)?
**A.** 0.41

**Q.** What about the “Gene Relative Expression IL-12p40” value (human PBMC cells; 0.03 μM) of the same molecule?
**A.** 0.32

**Q.** And the “Gene Relative Expression IL-12p70” value (human PBMC cells; 0.03 μM)?
**A.** 0.87

**Q.** And the “Gene Relative Expression IL-13” value (human PBMC cells; 0.03 μM)?
**A.** 52.65

**Q.** And the “Gene Relative Expression IL-18” value (human PBMC cells; 0.03 μM)?
**A.** 0.06

**Q.** And the “Gene Relative Expression ISG15” value (human PBMC cells; 0.03 μM)?
**A.** 1.33

**Q.** And the “Gene Relative Expression MIP1a (CCL3)” value (human PBMC cells; 0.03 μM)?
**A.** 2.82

**Q.** And the “Gene Relative Expression MX1” value (human PBMC cells; 0.03 μM)?
**A.** 1.01

**Q.** And the “Gene Relative Expression OAS1” value (human PBMC cells; 0.03 μM)?
**A.** 0.78

**Q.** What about the “Gene Relative Expression TNF-α” value (human PBMC cells; 0.03 μM) of the same molecule?
**A.** 4.48

**Q.** And the “Gene Relative Expression CCL2” value (human PBMC cells; 0.10 μM)?
**A.** 0.38

**Q.** What about the “Gene Relative Expression GM-CSF” value (human PBMC cells; 0.10 μM) of the same molecule?
**A.** 16.06

**Q.** What about the “Gene Relative Expression IFN-α” value (human PBMC cells; 0.10 μM) of the same molecule?
**A.** 0.31

**Q.** And the “Gene Relative Expression IFNγ” value (human PBMC cells; 0.10 μM)?
**A.** 18.08

**Q.** What about the “Gene Relative Expression IL-1β” value (human PBMC cells; 0.10 μM) of the same molecule?
**A.** 3.00

**Q.** What about the “Gene Relative Expression IL-2” value (human PBMC cells; 0.10 μM) of the same molecule?
**A.** 3.29

**Q.** And the “Gene Relative Expression IL-4” value (human PBMC cells; 0.10 μM)?
**A.** 2.77

**Q.** And the “Gene Relative Expression IL-6” value (human PBMC cells; 0.10 μM)?
**A.** 6.72

**Q.** And the “Gene Relative Expression IL-8” value (human PBMC cells; 0.10 μM)?
**A.** 0.60

**Q.** And the “Gene Relative Expression IL-10” value (human PBMC cells; 0.10 μM)?
**A.** 0.09

**Q.** And the “Gene Relative Expression IL-12p40” value (human PBMC cells; 0.10 μM)?
**A.** 0.22

**Q.** What about the “Gene Relative Expression IL-12p70” value (human PBMC cells; 0.10 μM) of the same molecule?
**A.** 0.76

**Q.** And the “Gene Relative Expression IL-13” value (human PBMC cells; 0.10 μM)?
**A.** 101.38

**Q.** And the “Gene Relative Expression IL-18” value (human PBMC cells; 0.10 μM)?
**A.** 0.06

**Q.** And the “Gene Relative Expression ISG15” value (human PBMC cells; 0.10 μM)?
**A.** 1.54

**Q.** What about the “Gene Relative Expression MIP1a (CCL3)” value (human PBMC cells; 0.10 μM) of the same molecule?
**A.** 5.73

**Q.** And the “Gene Relative Expression MX1” value (human PBMC cells; 0.10 μM)?
**A.** 0.99

**Q.** And the “Gene Relative Expression OAS1” value (human PBMC cells; 0.10 μM)?
**A.** 0.69

**Q.** What about the “Gene Relative Expression TNF-α” value (human PBMC cells; 0.10 μM) of the same molecule?
**A.** 6.25

**Q.** What about the IC50 (KP-4 (Pancreatic)) of the same molecule?
**A.** 1 to 10 nM

**Q.** What about the “Relative wound healing to control (%)” value (Hela cells; 3 nM) of the same molecule?
**A.** 191%

**Q.** And the “Relative wound healing to control (%)” value (Hela cells; 10 nM)?
**A.** 198%

**Q.** And the “Relative wound healing to control (%)” value (Hela cells; 30 nM)?
**A.** 272%

**Q.** What about the “ratio (IC50 of K101)/(IC50 of compound) Mino” value (Mino (Lymphoma)) of the same molecule?
**A.** 52.2

**Q.** What about the IC50 (Mino (Lymphoma); Homo sapiens, MINO, read-out: IC50 Mino (Lymphoma)) of the same molecule?
**A.** 1 to 10 nM

**Q.** What about the EC50 [1] of the same molecule?
**A.** 0.001 to 0.01 µM
